{
  "source": "paper PMC11892125",
  "about": "(BMC Chemistry, 2025)",
  "biological_target": "b-CA-II (bovine carbonic anhydrase II) (Bos taurus, UniProt P00921)",
  "sequence (P00921 2-260)": "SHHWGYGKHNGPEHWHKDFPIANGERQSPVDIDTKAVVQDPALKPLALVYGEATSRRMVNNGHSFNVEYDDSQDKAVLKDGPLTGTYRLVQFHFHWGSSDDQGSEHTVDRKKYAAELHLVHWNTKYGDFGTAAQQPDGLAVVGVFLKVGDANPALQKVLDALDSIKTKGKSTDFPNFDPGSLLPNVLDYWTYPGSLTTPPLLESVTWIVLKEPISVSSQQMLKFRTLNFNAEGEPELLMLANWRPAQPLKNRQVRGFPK",
  "assay": "p-nitrophenyl acetate esterase assay, bovine enzyme, absorbance at […] nm",
  "format": "biochemical",
  "data": [
    {"smiles": "CCCCCCCC1(O)CS/C(=N\\C(=O)c2ccc(Br)cc2)N1c1ccccc1-c1ccccc1", "note": "(stereo not shown) [compound 5, (Z)-N-(3-([1,1'-biphenyl]-2-yl)-4-heptyl-4-hydroxythiazolidin-2-ylidene)-4-bromobenzamide]", "values": [
      {"measurement": "IC50", "value": "147 ± 30", "unit": "nM"}
    ]}
  ]
}
